Data from patent US11535585B2, “Nitrobenzyl derivatives of anti-cancer agents” (OBI PHARMA, INC., priority 2015, dated 2022).
Where two headings read alike, the source gives them in different places.

Columns and labels:
[1] = system: H460 non cell lung cancer human tumor cell line; test: In vitro human tumor cell line cytotoxicity / proliferation assay (AlamarBlue) with and without AKR1C3 inhibitor; type: cell-based
Procedure: In vitro proliferation data on the H460 […] human tumor cell line is determined based on IC50 measured by exposure of compounds at various concentrations for 2 hrs followed by a wash step and addition of fresh media followed by growth and cell viability staining and comparison to a media only treated control.
Specifically, exponentially growing cells are seeded at a density of 4×10^3 cells per well in a 96 well plate and incubated at 37° C. in 5% CO2, 95% air and 100% relative humidity for 24 hours prior to addition of test compounds. Compounds are solubilized in 100% DMSO at 200 times the desired final test concentration. At the time of drug addition, compounds are further diluted to 4 times the desired final concentration with complete medium. Aliquots of 50 μl of compound at specified concentrations are added to microtiter wells already containing 150 μl of medium, resulting in the final drug concentration reported. After drug addition the plates are incubated 72 hrs at 37° C., 5% CO2, 95% air and 100% relative humidity. At the end of this incubation, the viable cells are quantified using the AlamarBlue assay. The drug concentration resulting in growth inhibition of 50% (IC50) is calculated using Prism software (Irvine, Calif.).
Cell proliferation were performed in the presence (3 micromolar) and absence of a specific inhibitor of the AKR 1C3 enzyme. The case of added inhibitor was added to cell culture 2 hours prior to compound treatment. The inhibitor used was compound 36 in Flanagan, et al, Bioorganic and Medicinal Chemistry (2014) p 962-977.
Proliferation data of TH compounds in H460 in the presence/absence of the specific AKR 1C3 inhibitor

AKR1C3 = target: T1, AKR1C3 (Homo sapiens, UniProt P42330); settings: cited from earlier work
T1 sequence (P42330 1-323): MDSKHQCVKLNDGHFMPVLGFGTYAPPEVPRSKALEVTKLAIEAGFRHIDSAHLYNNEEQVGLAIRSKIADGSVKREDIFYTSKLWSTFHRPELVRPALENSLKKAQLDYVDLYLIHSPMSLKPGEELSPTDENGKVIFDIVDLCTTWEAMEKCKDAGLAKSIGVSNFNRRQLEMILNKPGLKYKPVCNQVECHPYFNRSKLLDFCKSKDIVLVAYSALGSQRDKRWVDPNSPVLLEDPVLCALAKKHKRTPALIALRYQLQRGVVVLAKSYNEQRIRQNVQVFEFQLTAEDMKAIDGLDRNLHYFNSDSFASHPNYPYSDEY

[2] = tested as water soluble phosphate prodrug PR 104P; cited from earlier work
[3] = NCI-H460, H460 cells, absence of specific AKR 1C3 inhibitor, read-out: IC50 (without inhibitor)
[4] = NCI-H460, H460 cells, presence of 3 micromolar specific AKR 1C3 inhibitor added 2 hours prior to compound treatment, read-out: IC50 (with inhibitor)

## CCN(CCCCBr)P(=O)(OCc1ccc([N+](=O)[O-])c(Oc2ccc(-c3ccccc3)cc2)c1)OCC1OC(n2ccc(N)nc2=O)C(F)(F)C1O (stereo not shown) [TH3057]
[1]; NCI-H460, read-out: IC50 (without inhibitor)
  IC50: 0.2 µM

## CC(=O)O[C@H]1C(=O)[C@@]2(C)[C@H]([C@H](OC(=O)c3ccccc3)[C@]3(O)C[C@H](OC(=O)[C@H](OC(=O)N(C)CCN(C)C(=O)OCc4ccc([N+](=O)[O-])c(Oc5ccc6ncccc6c5)c4)[C@@H](NC(=O)c4ccccc4)c4ccccc4)C(C)=C1C3(C)C)[C@]1(OC(C)=O)CO[C@@H]1C[C@@H]2O [TH3047]
[1]; [3]
  IC50: 0.03 µM
[1]; [4]
  IC50: 30 µM

## CC(=O)O[C@H]1C(=O)[C@@]2(C)[C@H]([C@H](OC(=O)c3ccccc3)[C@]3(O)C[C@H](OC(=O)[C@H](OC(=O)N(C)CCN(C)C(=O)OC(C)c4ccc([N+](=O)[O-])c(Oc5ccc6ncccc6c5)c4)[C@@H](NC(=O)c4ccccc4)c4ccccc4)C(C)=C1C3(C)C)[C@]1(OC(C)=O)CO[C@@H]1C[C@@H]2O (stereo partly shown) [TH3054]
[1]; [3]
  IC50: 0.03 µM
[1]; [4]
  IC50: 91 µM

## CS(=O)(=O)OCCN(CCBr)c1c(C(=O)NCCO)cc([N+](=O)[O-])cc1[N+](=O)[O-] [PR 104]
AKR1C3
  substrate for AKR1C3: weak substrate
[2]
  efficacy in clinical trials: ineffective
